Data reported in ChEMBL document CHEMBL5532762, “Potential of covalently linked tamoxifen hybrids for cancer treatment: recent update” (RSC Med Chem, 2024).
Blank lines part the entries; values can stand above or below the compound they belong to.

Legend:
MDA-MB-231 [1] = test: Growth inhibition of human MDA-MB-231 cells measured after 48 hrs by SRB assay; assay type: functional
MCF7 [2] = test: Antiproliferative activity against human MCF7 cells assessed as cell growth inhibition incubated for 72 hrs by MTT assay; details: MCF7, 72 h
MCF7 [3] = test: Antiproliferative activity against human MCF7 cells assessed as reduction in cell growth incubated for 24 hrs by MTT assay; details: MCF7, 24 h
[4] = Aqueous solubility of the compound; assay type: physicochemical; details: water (aqueous)
MDA-MB-231 [5] = test: Antiproliferative activity against human MDA-MB-231 cells assessed as reduction in cell growth incubated for 24 hrs by MTT assay; details: MDA-MB-231, 24 h
MCF7 [6] = test: Antiproliferative activity against human MCF7 cells assessed as reduction in cell viability measured after 72 hrs by MTT assay; assay type: functional, cell-based; details: MCF7, 72 h
SiHa = test: Growth inhibition of human SiHa cells measured after 48 hrs by SRB assay; assay type: functional
Estrogen receptor beta = Estrogen receptor beta (Homo sapiens, UniProt Q92731); test: Inhibition of ERbeta (unknown origin) by renilla luciferase assay
MCF7 [7] = test: Antiproliferative activity against human MCF7 cells assessed as reduction in cell growth measured after 72 hrs by alamar blue analysis; details: MCF7, 72 h

Sequence of Estrogen receptor beta (Q92731 whole entry): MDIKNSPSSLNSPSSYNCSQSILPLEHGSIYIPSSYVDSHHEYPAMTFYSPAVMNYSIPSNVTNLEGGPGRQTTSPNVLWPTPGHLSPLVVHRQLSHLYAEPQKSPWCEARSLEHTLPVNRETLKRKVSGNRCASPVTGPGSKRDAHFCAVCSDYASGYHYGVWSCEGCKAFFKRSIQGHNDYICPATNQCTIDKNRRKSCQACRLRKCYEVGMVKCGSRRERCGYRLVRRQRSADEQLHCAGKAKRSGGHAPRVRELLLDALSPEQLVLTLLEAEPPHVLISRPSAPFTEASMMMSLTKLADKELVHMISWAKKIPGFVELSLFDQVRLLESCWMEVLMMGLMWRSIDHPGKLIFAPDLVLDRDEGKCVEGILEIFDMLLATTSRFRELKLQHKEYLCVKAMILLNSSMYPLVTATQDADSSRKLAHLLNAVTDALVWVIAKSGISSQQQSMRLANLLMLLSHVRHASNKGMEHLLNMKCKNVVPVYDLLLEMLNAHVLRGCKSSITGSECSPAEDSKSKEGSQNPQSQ

GI50 (MDA-MB-231 [1]): 240 nM
IC50 (MCF7 [2]): 12.6 µM
Structure (SMILES): CC/C(=C(\c1ccccc1)c1ccc(OCCN(C)C)cc1)c1ccccc1 [TAMOXIFEN]

Structure (SMILES): COc1ccc(/C=C\c2cc(OC)c(OC)c(OC)c2)cc1O [COMBRETASTATIN A4]
IC50 (MCF7 [3]): 8 nM

solubility [4]: ≥ 20 µg/mL
Structure (SMILES): COc1cc(COc2ccc(/C(=C(\C)c3ccccc3)c3ccc(OCCN(C)C)cc3)cc2)c([N+](=O)[O-])cc1OCC(=O)NCCN

GI50 (MDA-MB-231 [1]): 230 nM
Structure (SMILES): c1ccc(/C(Cn2cncn2)=C(/c2ccccc2)c2ccc(OCCN3CCN(c4ccc5c(c4)OCO5)CC3)cc2)cc1

IC50 (MDA-MB-231 [5]): 2480 nM
IC50 (MCF7 [3]): 5 nM
Structure (SMILES): CCC(=C(c1ccc(O)cc1)c1ccc(OCCN(C)C(=O)/C(=C/c2ccc(OC)c(O)c2)c2cc(OC)c(OC)c(OC)c2)cc1)c1ccc(O)cc1

IC50 (MCF7 [6]): 4 µM
Structure (SMILES): CC/C(=C(\c1ccccc1)c1ccc(OCCN(C)CCCCC(=O)NCCc2c[nH]c3ccc(OC)cc23)cc1)c1ccccc1

Structure (SMILES): c1ccc(/C(Cn2cncn2)=C(/c2ccccc2)c2ccc(OCCN3CCN(c4ncccn4)CC3)cc2)cc1
GI50 (SiHa): 120 nM

IC50 (Estrogen receptor beta): 240 µM
Structure (SMILES): CCC(=C(c1ccc(O)cc1)c1ccc(OCCNCCCCCCNC(=O)CCCCCNC(=O)CSc2c(Cl)c(Cl)c(C(=O)O)c(C3=c4cc5c(c(S(=O)(=O)O)c4Oc4c3cc3c(c4S(=O)(=O)O)NC(C)(C)CC3C)=NC(C)(C)CC5C)c2Cl)cc1)c1ccccc1 (centres undefined)

IC50 (MCF7 [3]): 29 nM
Structure (SMILES): CC/C(=C(\c1ccc(O)cc1)c1ccc(OCCNC)cc1)c1ccccc1 [ENDOXIFEN]

Structure (SMILES): CC/C(=C(/c1ccc(OCCN(C)C)cc1)c1ccc(OC(=O)N(C)CCN(C)C(=O)OCc2cc(OC)c(OCC(=O)NCCN)cc2[N+](=O)[O-])cc1)c1ccccc1
solubility [4]: ≥ 20 µg/mL

Structure (SMILES): CC/C(=C(\c1ccc(O)cc1)c1ccc(OCCN(C)C(=O)CCC(=O)Oc2cc(/C=C\c3cc(OC)c(OC)c(OC)c3)ccc2OC)cc1)c1ccccc1
IC50 (MCF7 [7]): 5.7 nM

IC50 (MCF7 [6]): 80 µM
Structure (SMILES): CC/C(=C(\c1ccccc1)c1ccc(OCCN(C)CCCCCC(=O)NCCc2c[nH]c3ccc(OC)cc23)cc1)c1ccccc1
